# According to the supplement of paper PMC10307832:
# Legend:
# Assay in all cases: relative viability (nuclei count vs DMSO), 5 days (fraction); higher = more cells survive
# A-427 = test system: A-427
# Outline: (§1)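 Relative viability is defined as nuclei in treated wells over nuclei in vehicle wells. Duplicate plates were run and medians reported. Lung cancer cell lines in 1536-well plates were dosed by pin tool one day after seeding, with one drug or with a fixed anchor-drug dose plus five library-drug doses (not always all listed) in √10 steps, and nuclei were counted after 5 days.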
# HCC-15 = test system: HCC-15
# Outline: as §1
# HCC-78 = test system: HCC-78
# Outline: as §1
# HOP-62 = test system: HOP-62
# Outline: as §1
# LC-2-ad = test system: LC-2-ad
# Outline: as §1
# LXF-289 = test system: LXF-289
# Outline: as §1
# NCI-H1734 = test system: NCI-H1734
# Outline: as §1
# NCI-H1755 = test system: NCI-H1755
# Outline: as §1
# NCI-H1792 = test system: NCI-H1792
# Outline: as §1
# NCI-H1915 = test system: NCI-H1915
# Outline: as §1
# NCI-H1975 = test system: NCI-H1975
# Outline: as §1
# NCI-H2126 = test system: NCI-H2126
# Outline: as §1
# NCI-H2228 = test system: NCI-H2228
# Outline: as §1
# NCI-H2342 = test system: NCI-H2342
# Outline: as §1
# NCI-H2347 = test system: NCI-H2347
# Outline: as §1
# NCI-H358 = test system: NCI-H358
# Outline: as §1
# NCI-H522 = test system: NCI-H522
# Outline: as §1
# NCI-H647 = test system: NCI-H647
# Outline: as §1
# PC-3 [JPC-3] = test system: PC-3 [JPC-3]
# Outline: as §1
# RERF-LC-KJ = test system: RERF-LC-KJ
# Outline: as §1
# SK-LU-1 = test system: SK-LU-1
# Outline: as §1
# SW 1573 = test system: SW 1573
# Outline: as §1
structure (smiles),measurement,setting,value
Nc1ccn([C@@H]2O[C@H](CO)[C@@H](O)[C@@H]2O)c(=O)n1 [Cytarabine] + Cc1nc(Nc2ncc(C(=O)Nc3c(C)cccc3Cl)s2)cc(N2CCN(CCO)CC2)n1 [Dasatinib] (partner 0.075 µM),relative viability,A-427; first compound 0.005 µM,0.591
same,relative viability,A-427; first compound 0.01581 µM,0.215
same,relative viability,A-427; first compound 0.05 µM,0.195
same,relative viability,A-427; first compound 0.1581 µM,0.141
same,relative viability,A-427; first compound 0.5 µM,0.135
same,relative viability,HCC-15; first compound 0.005 µM,0.559
same,relative viability,HCC-15; first compound 0.01581 µM,0.679
same,relative viability,HCC-15; first compound 0.05 µM,0.683
same,relative viability,HCC-15; first compound 0.1581 µM,0.479
same,relative viability,HCC-15; first compound 0.5 µM,0.401
same,relative viability,HCC-78; first compound 0.005 µM,0.585
same,relative viability,HCC-78; first compound 0.01581 µM,0.363
same,relative viability,HCC-78; first compound 0.05 µM,0.27
same,relative viability,HCC-78; first compound 0.1581 µM,0.228
same,relative viability,HCC-78; first compound 0.5 µM,0.208
same,relative viability,HOP-62; first compound 0.005 µM,0.58
same,relative viability,HOP-62; first compound 0.01581 µM,0.531
same,relative viability,HOP-62; first compound 0.05 µM,0.421
same,relative viability,HOP-62; first compound 0.1581 µM,0.157
same,relative viability,HOP-62; first compound 0.5 µM,0.11
same,relative viability,LC-2-ad; first compound 0.005 µM,0.358
same,relative viability,LC-2-ad; first compound 0.01581 µM,0.308
same,relative viability,LC-2-ad; first compound 0.05 µM,0.347
same,relative viability,LC-2-ad; first compound 0.1581 µM,0.225
same,relative viability,LC-2-ad; first compound 0.5 µM,0.214
same,relative viability,LXF-289; first compound 0.005 µM,0.221
same,relative viability,LXF-289; first compound 0.01581 µM,0.202
same,relative viability,LXF-289; first compound 0.05 µM,0.171
same,relative viability,LXF-289; first compound 0.1581 µM,0.112
same,relative viability,LXF-289; first compound 0.5 µM,0.0684
same,relative viability,NCI-H1734; first compound 0.005 µM,0.419
same,relative viability,NCI-H1734; first compound 0.01581 µM,0.221
same,relative viability,NCI-H1734; first compound 0.05 µM,0.218
same,relative viability,NCI-H1734; first compound 0.1581 µM,0.125
same,relative viability,NCI-H1734; first compound 0.5 µM,0.113
same,relative viability,NCI-H1755; first compound 0.005 µM,0.439
same,relative viability,NCI-H1755; first compound 0.01581 µM,0.316
same,relative viability,NCI-H1755; first compound 0.05 µM,0.372
same,relative viability,NCI-H1755; first compound 0.1581 µM,0.257
same,relative viability,NCI-H1755; first compound 0.5 µM,0.222
same,relative viability,NCI-H1792; first compound 0.005 µM,1.34
same,relative viability,NCI-H1792; first compound 0.01581 µM,0.657
same,relative viability,NCI-H1792; first compound 0.05 µM,0.603
same,relative viability,NCI-H1792; first compound 0.1581 µM,0.503
same,relative viability,NCI-H1792; first compound 0.5 µM,0.355
same,relative viability,NCI-H1915; first compound 0.005 µM,0.366
same,relative viability,NCI-H1915; first compound 0.01581 µM,0.29
same,relative viability,NCI-H1915; first compound 0.05 µM,0.273
same,relative viability,NCI-H1915; first compound 0.1581 µM,0.183
same,relative viability,NCI-H1915; first compound 0.5 µM,0.181
same,relative viability,NCI-H1975; first compound 0.005 µM,0.329
same,relative viability,NCI-H1975; first compound 0.01581 µM,0.47
same,relative viability,NCI-H1975; first compound 0.05 µM,0.338
same,relative viability,NCI-H1975; first compound 0.1581 µM,0.297
same,relative viability,NCI-H1975; first compound 0.5 µM,0.191
same,relative viability,NCI-H2126; first compound 0.005 µM,0.516
same,relative viability,NCI-H2126; first compound 0.01581 µM,0.55
same,relative viability,NCI-H2126; first compound 0.05 µM,0.429
same,relative viability,NCI-H2126; first compound 0.1581 µM,0.378
same,relative viability,NCI-H2126; first compound 0.5 µM,0.32
same,relative viability,NCI-H2228; first compound 0.005 µM,0.299
same,relative viability,NCI-H2228; first compound 0.01581 µM,0.158
same,relative viability,NCI-H2228; first compound 0.05 µM,0.159
same,relative viability,NCI-H2228; first compound 0.1581 µM,0.0724
same,relative viability,NCI-H2228; first compound 0.5 µM,0.0511
same,relative viability,NCI-H2342; first compound 0.005 µM,0.309
same,relative viability,NCI-H2342; first compound 0.01581 µM,0.295
same,relative viability,NCI-H2342; first compound 0.05 µM,0.262
same,relative viability,NCI-H2342; first compound 0.1581 µM,0.257
same,relative viability,NCI-H2342; first compound 0.5 µM,0.277
same,relative viability,NCI-H2347; first compound 0.005 µM,0.321
same,relative viability,NCI-H2347; first compound 0.01581 µM,0.307
same,relative viability,NCI-H2347; first compound 0.05 µM,0.241
same,relative viability,NCI-H2347; first compound 0.1581 µM,0.274
same,relative viability,NCI-H2347; first compound 0.5 µM,0.201
same,relative viability,NCI-H358; first compound 0.005 µM,0.206
same,relative viability,NCI-H358; first compound 0.01581 µM,0.167
same,relative viability,NCI-H358; first compound 0.05 µM,0.131
same,relative viability,NCI-H358; first compound 0.1581 µM,0.0707
same,relative viability,NCI-H358; first compound 0.5 µM,0.0702
same,relative viability,NCI-H522; first compound 0.005 µM,0.935
same,relative viability,NCI-H522; first compound 0.01581 µM,0.802
same,relative viability,NCI-H522; first compound 0.05 µM,0.769
same,relative viability,NCI-H522; first compound 0.1581 µM,0.562
same,relative viability,NCI-H522; first compound 0.5 µM,0.55
same,relative viability,NCI-H647; first compound 0.005 µM,0.104
same,relative viability,NCI-H647; first compound 0.01581 µM,0.0553
same,relative viability,NCI-H647; first compound 0.05 µM,0.0872
same,relative viability,NCI-H647; first compound 0.1581 µM,0.0307
same,relative viability,NCI-H647; first compound 0.5 µM,0.0339
same,relative viability,PC-3 [JPC-3]; first compound 0.005 µM,0.952
same,relative viability,PC-3 [JPC-3]; first compound 0.01581 µM,0.884
same,relative viability,PC-3 [JPC-3]; first compound 0.05 µM,1.01
same,relative viability,PC-3 [JPC-3]; first compound 0.1581 µM,0.63
same,relative viability,PC-3 [JPC-3]; first compound 0.5 µM,0.603
same,relative viability,RERF-LC-KJ; first compound 0.005 µM,0.689
same,relative viability,RERF-LC-KJ; first compound 0.01581 µM,0.646
same,relative viability,RERF-LC-KJ; first compound 0.05 µM,0.524
same,relative viability,RERF-LC-KJ; first compound 0.1581 µM,0.409
same,relative viability,RERF-LC-KJ; first compound 0.5 µM,0.281
same,relative viability,SK-LU-1; first compound 0.005 µM,0.179
same,relative viability,SK-LU-1; first compound 0.01581 µM,0.157
same,relative viability,SK-LU-1; first compound 0.05 µM,0.17
same,relative viability,SK-LU-1; first compound 0.5 µM,0.147
same,relative viability,SW 1573; first compound 0.005 µM,0.34
same,relative viability,SW 1573; first compound 0.01581 µM,0.333
same,relative viability,SW 1573; first compound 0.05 µM,0.381
same,relative viability,SW 1573; first compound 0.1581 µM,0.122
same,relative viability,SW 1573; first compound 0.5 µM,0.089
